Entries after “also recorded” stand apart in the source; their conditions may differ.
Tests used:
[1] = Solubility, automated shake flask method with UV quantitation; type: physicochemical; conditions: for solubility at 2 h / solubility at 4 h / solubility at 6 h: thermodynamic from solid, room temperature
Procedure: Solubility was determined using an automated shake flask method (at room temperature) and quantitation of the dissolved drug substance was determined by UV-spectroscopy within this automated setup.

[2] = Dynamic vapour sorption (sorption isotherms, water uptake); type: physicochemical; conditions: for hygroscopic behavior: uptake of water: 25° C., citrate
Description: Sorption isotherms were generated using an IGAsorp water sorption monitor from Hiden Isochema. […] For BR salt form only: Sorption isotherms were registered on a DVS-1 water sorption monitor from Surface Measurement Systems.

[3] = X-ray powder diffraction: crystallinity and polymorphism; type: physicochemical; conditions: for indications for polymorphism: several crystallization experiments
Description: X-ray powder diagrams were generated using a STOE-STADI P-diffractometer in transmission mode fitted with a MYTHEN-detector and a Cu-anode as X-ray source with monochromatic CuKα1 radiation (λ=1.54056 Å, 40 kV, 40 mA).

[4] = ThermoGravimetry (loss on drying); type: physicochemical; conditions: TG
Description: Thermal gravimetry data were collected with a TG instrument from the Q-series of TA Instruments. This method measures weight changes in a material as a function of temperature under a controlled atmosphere.

[5] = Oral pharmacokinetics in rat; type: in vivo, Wistar(Han) rats; conditions: oral dose 20 μmol/kg of citrate salt 1, mean values
Description: The pharmacokinetics of the test compound following single intravenous (IV) or oral (PO) doses were examined in • female BALB/c mice (average weight: 25 g) • male Wistar(Han) rats (average weight: 260 g) • male and female Göttingen Minipigs (average weight: 24 kg) • male beagle dogs (average weight: 15 kg) All non-rodent species were fasted overnight prior to dosing, while mice and rats had food and water available ad libitum. The p.o. dose of the compound was usually administered as suspension in 0.5% Natrosol or as a 0.5% Natrosol/0.015% Tween 80 suspension. For i.v. dosing purposes, the doses were applied as a solution in 0.9% NaCL, or as a solution containing 9.1% HP-beta Cyclodextrin in water.
Blood was collected by venous sampling and soaking of the blood in EDTA coated tubes. Samples were collected for up to 48 h after administration of the test compound. Plasma was then separated by centrifugation (5 min by approximately 9000 g at 4° C.). For determination of the test compound, plasma was transferred into PCR plates. All samples were stored at approximately −20° C. until bioanalytics. The test compound concentrations in plasma were determined by HPLC MS/MS. The lower limit of quantification was between 0.5 nmol/L and 1 nmol/L.

[6] = listed as Citrate salt, citrate
[7] = male, Wistar(Han), plasma, 20 umol/kg

Q: For `CO[C@H]1COCC[C@H]1NC1CCN(C(=O)c2ncnc(NC[C@H]3CCC[C@@H](c4ccc(C)cc4)O3)c2C)CC1.O=C(O)CC(O)(CC(=O)O)C(=O)O` [citrate salt 1, (4-((3R,4R)-3-methoxytetrahydro-pyran-4-ylamino)piperidin-1-yl)(5-methyl-6-(((2R,6S)-6-(p-tolyl)tetrahydro-2H-pyran-2-yl)methylamino)pyrimidin-4-yl)methanone citrate], which solubility at 2 h ([1]; Sörensen buffer, aqueous buffer, Sörensen pH 10, 2 h) is on record?
A: > 1000 µg/mL

Q: And the solubility at 4 h ([1]; Sörensen buffer, aqueous buffer, Sörensen pH 10, 4 h)?
A: > 1000 µg/mL

Q: What about the solubility at 6 h ([1]; Sörensen buffer, aqueous buffer, Sörensen pH 10, 6 h) of the same compound?
A: > 1000 µg/mL

Q: What about the “Solubility in aqueous media (in words)” value ([1]; acidic, neutral and basic aqueous media) of the same compound?
A: highly soluble

Q: What about the solubility at 2 h ([1]; aqueous buffer, 0.1N NaOH, 2 h) of the same compound?
A: > 1000 µg/mL

Q: And the solubility at 4 h ([1]; aqueous buffer, 0.1N NaOH, 4 h)?
A: > 1000 µg/mL

Q: What about the solubility at 6 h ([1]; aqueous buffer, 0.1N NaOH, 6 h) of the same compound?
A: > 1000 µg/mL

Q: What about the solubility at 2 h ([1]; aqueous buffer, KH2PO4-buffer pH 7.4, 2 h) of the same compound?
A: > 1000 µg/mL

Q: And the solubility at 4 h ([1]; aqueous buffer, KH2PO4-buffer pH 7.4, 4 h)?
A: > 1000 µg/mL

Q: And the solubility at 6 h ([1]; aqueous buffer, KH2PO4-buffer pH 7.4, 6 h)?
A: > 1000 µg/mL

Q: What about the solubility at 2 h ([1]; aqueous buffer, McIlvaine buffer pH 2.2, 2 h) of the same compound?
A: > 1000 µg/mL

Q: What about the solubility at 4 h ([1]; aqueous buffer, McIlvaine buffer pH 2.2, 4 h) of the same compound?
A: > 1000 µg/mL

Q: And the solubility at 6 h ([1]; aqueous buffer, McIlvaine buffer pH 2.2, 6 h)?
A: > 1000 µg/mL

Q: And the solubility at 2 h ([1]; aqueous buffer, McIlvaine buffer pH 3.0, 2 h)?
A: > 1000 µg/mL

Q: And the solubility at 4 h ([1]; aqueous buffer, McIlvaine buffer pH 3.0, 4 h)?
A: > 1000 µg/mL

Q: What about the solubility at 6 h ([1]; aqueous buffer, McIlvaine buffer pH 3.0, 6 h) of the same compound?
A: > 1000 µg/mL

Q: What about the solubility at 2 h ([1]; aqueous buffer, McIlvaine buffer pH 4.0, 2 h) of the same compound?
A: > 1000 µg/mL

Q: And the solubility at 4 h ([1]; aqueous buffer, McIlvaine buffer pH 4.0, 4 h)?
A: > 1000 µg/mL

Q: What about the solubility at 6 h ([1]; aqueous buffer, McIlvaine buffer pH 4.0, 6 h) of the same compound?
A: > 1000 µg/mL

Q: What about the solubility at 4 h ([1]; aqueous buffer, McIlvaine buffer pH 4.5, 4 h) of the same compound?
A: > 1000 µg/mL

Q: What about the solubility at 6 h ([1]; aqueous buffer, McIlvaine buffer pH 4.5, 6 h) of the same compound?
A: > 1000 µg/mL

Q: And the solubility at 2 h ([1]; aqueous buffer, McIlvaine buffer pH 5.0, 2 h)?
A: > 1000 µg/mL

Q: And the solubility at 4 h ([1]; aqueous buffer, McIlvaine buffer pH 5.0, 4 h)?
A: > 1000 µg/mL

Q: What about the solubility at 6 h ([1]; aqueous buffer, McIlvaine buffer pH 5.0, 6 h) of the same compound?
A: > 1000 µg/mL

Q: What about the solubility at 2 h ([1]; aqueous buffer, McIlvaine buffer pH 6.0, 2 h) of the same compound?
A: > 1000 µg/mL

Q: And the solubility at 4 h ([1]; aqueous buffer, McIlvaine buffer pH 6.0, 4 h)?
A: > 1000 µg/mL

Q: What about the solubility at 6 h ([1]; aqueous buffer, McIlvaine buffer pH 6.0, 6 h) of the same compound?
A: > 1000 µg/mL

Q: What about the solubility at 2 h ([1]; aqueous buffer, McIlvaine buffer pH 6.8, 2 h) of the same compound?
A: > 1000 µg/mL

Q: And the solubility at 4 h ([1]; aqueous buffer, McIlvaine buffer pH 6.8, 4 h)?
A: > 1000 µg/mL

Q: What about the solubility at 6 h ([1]; aqueous buffer, McIlvaine buffer pH 6.8, 6 h) of the same compound?
A: > 1000 µg/mL

Q: And the solubility at 2 h ([1]; aqueous buffer, McIlvaine buffer pH 7.4, 2 h)?
A: > 1000 µg/mL

Q: What about the solubility at 4 h ([1]; aqueous buffer, McIlvaine buffer pH 7.4, 4 h) of the same compound?
A: > 1000 µg/mL

Q: What about the solubility at 6 h ([1]; aqueous buffer, McIlvaine buffer pH 7.4, 6 h) of the same compound?
A: > 1000 µg/mL

Q: What about the solubility at 2 h ([1]; organic solvent or mixture, EtOH, 2 h) of the same compound?
A: 9200 µg/mL

Q: What about the solubility at 4 h ([1]; organic solvent or mixture, EtOH, 4 h) of the same compound?
A: 9800 µg/mL

Q: What about the solubility at 6 h ([1]; organic solvent or mixture, EtOH, 6 h) of the same compound?
A: 10000 µg/mL

Q: What about the solubility at 2 h ([1]; simulated gastric fluid, 0.01N HCl, 2 h) of the same compound?
A: > 1000 µg/mL

Q: And the solubility at 4 h ([1]; simulated gastric fluid, 0.01N HCl, 4 h)?
A: > 1000 µg/mL

Q: And the solubility at 6 h ([1]; simulated gastric fluid, 0.01N HCl, 6 h)?
A: > 1000 µg/mL

Q: What about the solubility at 2 h ([1]; simulated gastric fluid, 0.1N HCl, 2 h) of the same compound?
A: > 1000 µg/mL

Q: What about the solubility at 4 h ([1]; simulated gastric fluid, 0.1N HCl, 4 h) of the same compound?
A: > 1000 µg/mL

Q: And the solubility at 6 h ([1]; simulated gastric fluid, 0.1N HCl, 6 h)?
A: > 1000 µg/mL

Q: What about the solubility at 2 h ([1]; Water, 2 h) of the same compound?
A: > 1000 µg/mL

Q: And the solubility at 4 h ([1]; Water, 4 h)?
A: > 1000 µg/mL

Q: And the solubility at 6 h ([1]; Water, 6 h)?
A: > 1000 µg/mL

Q: What about the “physical state after sorption experiment / at higher relative humidity” value ([2]; higher relative humidity, other salts starting at 60-70% relative humidity) of the same compound?
A: still remains as solid material

Q: And the “hygroscopic behavior: uptake of water” value ([2]; up to 80% r.h. (humidity range 10-80%))?
A: 2.6%

Q: What about the “hygroscopic behavior: uptake of water” value ([2]; up to 80% r.h. (humidity range 10-80%), listed as Citrate salt) of the same compound?
A: 2.6%

Q: And the “hygroscopic behavior: uptake of water” value ([2]; up to 80% r.h. (humidity range 10-80%), listed as citrate)?
A: 2.6%

Q: What about the “hygroscopic behavior: uptake of water” value ([2]; up to 90% r.h.) of the same compound?
A: 3.4%

Q: What about the “hygroscopic behavior: uptake of water” value ([2]; up to 90% r.h., listed as Citrate salt) of the same compound?
A: 3.4%

Q: And the crystallinity ([3]; listed as Citrate salt 1, citrate)?
A: highly crystalline

Q: What about the crystallinity [3, 6] of the same compound?
A: high

Q: And the indications for polymorphism [3, 6]?
A: no

Q: What about the indications for polymorphism ([3]; listed as citrate, citrate) of the same compound?
A: Only one crystalline form; also recorded: only one polymorphic form

Q: And the loss on drying [4]?
A: 1.6%

Q: And the AUC(0-inf) [5, 7]?
A: 1.71 µM·h

Q: What about the Cmax [5, 7] of the same compound?
A: 454 nM

Q: What about the Tmax [5, 7] of the same compound?
A: 1.08 h

Q: And the MRTtot [5]?
A: 3.3 h

— US10213428B2, “(4-((3R,4R)-3-methoxytetrahydro-pyran-4-ylamino)piperidin-1-yl)(5-methyl-6-(((2R,6S)-6-(p-tolyl)tetrahydro-2H-pyran-2-yl)methylamino)pyrimidin-4-yl)methanone citrate” (Centrexion Therapeutics Corporation, priority 2015, dated 2019)
